Measured values taken from US20220135667A1, “THERAPEUTIC COMBINATIONS AND COMPOSITIONS FOR THE TREATMENT OF INFLAMMATORY BOWEL DISEASE (II)” (RIJSUNIVERSITEIT GRONINGEN, priority 2019, published 2022).

Tested on: CD patients
Experiment: prospective clinical intervention study of riboflavin in CD patients
Assay type: in vivo, human
Details: 100 mg riboflavin daily for 3 weeks
Procedure: In a prospective clinical intervention study, 70 CD patients were included and divided into two groups with (active) and without (quiescent) evidence of mucosal inflammation (defined by fecal calprotectin (FC) cut-off value: 200 μg/g). Patients received 100 mg riboflavin daily for 3 weeks. Clinical disease activity (Harvey-Bradshaw Index: HBI), inflammatory biomarkers (including interleukin 2) as well as fecal microbial composition (including pathogenic Enterobacteriaceae including E. coli) were analyzed before and after riboflavin intervention.

Cc1cc2nc3c(=O)[nH]c(=O)nc-3n(C[C@H](O)[C@H](O)[C@H](O)CO)c2cc1C [riboflavin]
fecal calprotectin (patients with TNF-alpha inhibitor treatment (FIG. 4)): further reduction
proinflammatory cytokine IL2 (patients with TNF-alpha inhibitor treatment (FIG. 5)): further reduction
Enterobacteriaceae including E. coli (fecal microbial composition) (patients with TNF-alpha inhibitor treatment (FIG. 6)): further reduction
clinical disease activity (Harvey-Bradshaw Index: HBI) (patients with TNF-alpha inhibitor treatment, both active and quiescent disease, before vs after (FIG. 1-3)): further reduced
clinical disease activity (Harvey-Bradshaw Index: HBI) (patients with mesalazine treatment (FIG. 1-3)): not the case (not as pronounced as)
